Assay results from ChEMBL document CHEMBL1201862, “PubChem BioAssay data set” (2004).
“And” between values parts separate entries of the source, which are not always exact repeats. Equal values may be shown once.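 Compound exposure: 48 hours, 5 concentrations, 96-well plates. GI50 = concentration required for 50% inhibition of growth.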 The source made the active and inactive calls. Cut-off read from the data, not from the text of the source: active = GI50 up to about 1.1 µM and inactive = higher.

What was measured:
Test in all cases: inhibition of tumour cell growth, NCI panel, 48 h
HT-29 = test system: HT-29
HOP-62 = test system: HOP-62
ACHN = test system: ACHN
COLO 205 = test system: COLO 205
SN12C = test system: SN12C
BT-549 = test system: BT-549
OVCAR-4 = test system: OVCAR-4
IGROV-1 = test system: IGROV-1
MOLT-4 = test system: MOLT-4
SF-539 = test system: SF-539
SW-620 = test system: SW-620
LOX IMVI = test system: LOX IMVI
RXF 393 = test system: RXF 393
NCI-H226 = test system: NCI-H226
HCC 2998 = test system: HCC 2998
SK-MEL-28 = test system: SK-MEL-28
SK-OV-3 = test system: SK-OV-3
OVCAR-5 = test system: OVCAR-5
UACC-62 = test system: UACC-62
MDA-N = test system: MDA-N

Row | SMILES | GI50 (HT-29) | GI50 (HOP-62) | GI50 (ACHN) | GI50 (COLO 205) | GI50 (SN12C) | GI50 (BT-549) | GI50 (OVCAR-4) | GI50 (IGROV-1) | GI50 (MOLT-4) | GI50 (SF-539) | GI50 (SW-620) | GI50 (LOX IMVI) | GI50 (RXF 393) | GI50 (NCI-H226) | GI50 (HCC 2998) | GI50 (SK-MEL-28) | GI50 (SK-OV-3) | GI50 (OVCAR-5) | GI50 (UACC-62) | GI50 (MDA-N)
1 | CC(=O)O[C@H]1[C@@H](N2CCCCC2)C[C@H]2[C@@H]3CC=C4C[C@@H](N5CCCC5)CC[C@]4(C)[C@H]3CC[C@@]21C | 15.3 µM (inactive) | 49.8 µM (inactive) | > 100 µM (inactive) | > 100 µM (inactive) | > 100 µM (inactive) | > 100 µM (inactive) | > 100 µM (inactive) | > 100 µM (inactive) | 44.5 µM (inactive) | 17.8 µM (inactive) | > 100 µM (inactive) | 35.6 µM (inactive) | 32.7 µM (inactive) | > 100 µM (inactive) | 14.3 µM (inactive) | 22 µM (inactive) | > 100 µM (inactive) | 48.6 µM (inactive) | > 100 µM (inactive) | 
2 | CC1=NC(=Cc2ccc(O)cc2)C(=O)N1n1c(-c2ccccc2)nc2ccccc2c1=O | > 100 µM (inactive) | > 100 µM (inactive) | > 100 µM (inactive) | > 100 µM (inactive) | > 100 µM (inactive) | > 100 µM (inactive) |  | > 100 µM (inactive) | > 100 µM (inactive) | > 100 µM (inactive) | > 100 µM (inactive) | > 100 µM (inactive) |  | > 100 µM (inactive) | > 100 µM (inactive) | > 100 µM (inactive) | > 100 µM (inactive) |  | > 100 µM (inactive) | > 100 µM (inactive)
3 | CCNCC(O)COc1ccc2c(c1)[n+]([O-])nc(N)[n+]2[O-] (centres undefined) | 68.9 µM (inactive) | 23.5 µM (inactive) | 30.1 µM (inactive) | 68.9 µM (inactive) | 45.4 µM (inactive) | > 100 µM (inactive) | 37.2 µM (inactive) | 36.3 µM (inactive) | 14.5 µM (inactive) | 37.3 µM (inactive) | 32.7 µM (inactive) | 14.3 µM (inactive) |  | 59.2 µM (inactive) |  | > 100 µM (inactive) | 10.6 µM (inactive) | > 100 µM (inactive) | 18 µM (inactive) | > 100 µM (inactive)
4 | Oc1ccccc1-n1nc2ccc3nonc3c2n1 | > 100 µM (inactive) | 90.2 µM (inactive) | > 100 µM (inactive) | > 100 µM (inactive) | > 100 µM (inactive) | > 100 µM (inactive) | > 100 µM (inactive) | > 100 µM (inactive) | > 100 µM (inactive) | > 100 µM (inactive) | > 100 µM (inactive) | > 100 µM (inactive) |  | > 100 µM (inactive) | 40.9 µM (inactive) | > 100 µM (inactive) | > 100 µM (inactive) | > 100 µM (inactive) | > 100 µM (inactive) | > 100 µM (inactive)
5 | CCOC(=O)c1c(SCCO)n(-c2ccccc2)c(=S)n(-c2ccccc2)c1=O | > 100 µM (inactive) | > 100 µM (inactive) | > 100 µM (inactive) | > 100 µM (inactive) | > 100 µM (inactive) | > 100 µM (inactive) | > 100 µM (inactive) | > 100 µM (inactive) | > 100 µM (inactive) |  | > 100 µM (inactive) | > 100 µM (inactive) |  | > 100 µM (inactive) |  | > 100 µM (inactive) | > 100 µM (inactive) | > 100 µM (inactive) | > 100 µM (inactive) | > 100 µM (inactive)
6 | CCO/C(Cc1ccc(Cl)cc1)=N/NC(N)=S | > 100 µM (inactive) | > 100 µM (inactive) | > 100 µM (inactive) | > 100 µM (inactive) | > 100 µM (inactive) | > 100 µM (inactive) | > 100 µM (inactive) | > 100 µM (inactive) | > 100 µM (inactive) | > 100 µM (inactive) | > 100 µM (inactive) | > 100 µM (inactive) |  | > 100 µM (inactive) | > 100 µM (inactive) | > 100 µM (inactive) | > 100 µM (inactive) | > 100 µM (inactive) | > 100 µM (inactive) | > 100 µM (inactive)
7 | N#Cc1c(N2CCC(O)C2)c2ccccc2n2c1nc1ccccc12 (centres undefined) | > 100 µM (inactive) | 18.6 µM (inactive) | 18.2 µM (inactive) | > 100 µM (inactive) | 72.4 µM (inactive) | 46.9 µM (inactive) | 20.5 µM (inactive) | 69.2 µM (inactive) | > 100 µM (inactive) | 54.8 µM (inactive) | > 100 µM (inactive) | > 100 µM (inactive) |  |  | > 100 µM (inactive) | > 100 µM (inactive) |  | > 100 µM (inactive) | > 100 µM (inactive) | > 100 µM (inactive)
8 | CC1(C)CC2=C(SC3C=CC=CC3N2)C(=O)C1C(=O)C(N)=O (centres undefined) | > 100 µM (inactive) | > 100 µM (inactive) | > 100 µM (inactive) | > 100 µM (inactive) | > 100 µM (inactive) | > 100 µM (inactive) | > 100 µM (inactive) | > 100 µM (inactive) | 40.4 µM (inactive) | > 100 µM (inactive) | > 100 µM (inactive) | > 100 µM (inactive) |  | 91 µM (inactive) | > 100 µM (inactive) | > 100 µM (inactive) | > 100 µM (inactive) | > 100 µM (inactive) | > 100 µM (inactive) | > 100 µM (inactive)
9 | CC(C)[Si](OC1=CCC[C@H]2NC(=O)[C@@H](Cc3ccc([N+](=O)[O-])cc3)[C@@]12C)(C(C)C)C(C)C | 2.12 µM (inactive) | 4.3 µM (inactive) | 1.49 µM (inactive) | 3.98 µM (inactive) | 2.02 µM (inactive) | 3.76 µM (inactive) | 4.47 µM (inactive) | 11.3 µM (inactive) | 3.72 µM (inactive) | 2.42 µM (inactive) |  | 4.9 µM (inactive) | 2.15 µM (inactive) |  | 1.95 µM (inactive) |  | 10.1 µM (inactive) | 8.65 µM (inactive) | 14.2 µM (inactive) | 4.98 µM (inactive)
10 | Cc1cc(C)c(N)c(CO)c1 |  | 38 µM (inactive) and > 53.5 µM (inactive) | > 100 µM (inactive) | 36.2 µM (inactive) and 46.7 µM (inactive) | > 100 µM (inactive) | > 100 µM (inactive) | 78.9 µM (inactive) and 57.4 µM (inactive) |  | > 100 µM (inactive) | > 100 µM (inactive) | > 88.3 µM (inactive) and 95.3 µM (inactive) | > 100 µM (inactive) |  |  | 74.5 µM (inactive) and 71.1 µM (inactive) | > 100 µM (inactive) | > 100 µM (inactive) |  | 22.8 µM (inactive) and 13.2 µM (inactive) | > 100 µM (inactive)
11 | Oc1nc(S)nc2nc3c4cccnc4c4ccccc4c3nc12 | > 100 µM (inactive) | 52.7 µM (inactive) | > 100 µM (inactive) | > 100 µM (inactive) | > 100 µM (inactive) | > 100 µM (inactive) | > 100 µM (inactive) | > 100 µM (inactive) | > 100 µM (inactive) | > 100 µM (inactive) | > 100 µM (inactive) |  | 49.8 µM (inactive) |  | > 100 µM (inactive) | 77.1 µM (inactive) | > 100 µM (inactive) | > 100 µM (inactive) | > 100 µM (inactive) | > 100 µM (inactive)
12 | CN(C)CCNCCCNc1c2ccccc2nc2cccc([N+](=O)[O-])c12 | < 0.0125 µM (active) | 0.0288 µM (active) | 0.017 µM (active) | < 0.0141 µM (active) | < 0.0208 µM (active) | 0.157 µM (active) | < 0.0129 µM (active) | < 0.0205 µM (active) | < 0.01 µM (active) | 0.0676 µM (active) | < 0.0144 µM (active) | < 0.0148 µM (active) | 0.0138 µM (active) | 0.0248 µM (active) | < 0.0126 µM (active) | 0.188 µM (active) | 0.0424 µM (active) | < 0.0148 µM (active) | 0.0446 µM (active) | 
13 | CC(C)CCC[C@@H](C)C1CCC2[C@@H]3CCC4C[C@@H](NS(C)(=O)=O)CC[C@]4(C)C3CC[C@@]21C (some centres undefined) | > 100 µM (inactive) | > 100 µM (inactive) |  | > 100 µM (inactive) | > 100 µM (inactive) | > 100 µM (inactive) | > 100 µM (inactive) | > 100 µM (inactive) | > 100 µM (inactive) | > 100 µM (inactive) | > 100 µM (inactive) | > 100 µM (inactive) | > 100 µM (inactive) | > 100 µM (inactive) |  | > 100 µM (inactive) | > 100 µM (inactive) |  | > 100 µM (inactive) | > 100 µM (inactive)
14 | CC(=O)NNc1nc(C)c(C(=O)/C=C/C=C/c2ccccc2)s1 | > 100 µM (inactive) | 80.4 µM (inactive) | > 100 µM (inactive) | > 100 µM (inactive) | > 100 µM (inactive) | > 100 µM (inactive) | > 100 µM (inactive) | 33.7 µM (inactive) | 56.1 µM (inactive) | > 100 µM (inactive) | > 100 µM (inactive) | > 100 µM (inactive) |  | > 100 µM (inactive) | > 100 µM (inactive) | > 100 µM (inactive) | > 100 µM (inactive) | > 100 µM (inactive) | > 100 µM (inactive) | > 100 µM (inactive)
15 | Nc1sccc1S(=O)(=O)c1ccsc1N | > 100 µM (inactive) | > 100 µM (inactive) | > 100 µM (inactive) | > 100 µM (inactive) | > 100 µM (inactive) | > 100 µM (inactive) | > 100 µM (inactive) | > 100 µM (inactive) | > 100 µM (inactive) | > 100 µM (inactive) | > 100 µM (inactive) | > 100 µM (inactive) |  | > 100 µM (inactive) | > 100 µM (inactive) | > 100 µM (inactive) | > 100 µM (inactive) | > 100 µM (inactive) | > 100 µM (inactive) | > 100 µM (inactive)
